Data taken from patent US20050267158A1, “Polymorphic and amorphous forms of 2,5-dimethyl-2H-pyrazole-3-carboxylic acid {2-fluoro-5-[3-((E)-2 pyridin-2-YL-vinyl)-1H-indazol-6-ylamino]-phenyl}-amide” (AGOURON PHARMACEUTICALS, INC., priority 2004, published 2005).
Converted amounts (≈) assume the structure as drawn.

Legend:
Format in all cases: physicochemical
[1] = Light stability under ICH high intensity light conditions
Source text: (§1) The present invention provides several polymorph crystalline forms and an amorphous form of the compound of Formula I. Each crystalline or amorphous form of the compound can be characterized by one or more of the following: X-ray powder diffraction pattern (i.e., X-ray diffraction peaks at various diffraction angles (2θ)), melting point onset (and onset of dehydration for hydrated forms) as illustrated by endotherms of a Differential Scanning Calorimetry (DSC) thermogram, Raman spectral diagram pattern, aqueous solubility, light stability under International Conference on Harmonization (ICH) high intensity light conditions, and physical and chemical storage stability.

Aqueous solubility = conditions: for solubility: thermodynamic from solid
Source text: as §1

[2] = Physical and chemical storage stability
Source text: as §1

[3] = Hygroscopicity / form conversion under ambient humidity; conditions: for conversion of solid form: ambient humidity
[4] = aqueous medium, pH 2, pH 2, aqueous buffer, pH 2

Cc1cc(C(=O)Nc2cc(Nc3ccc4c(/C=C/c5ccccn5)n[nH]c4c3)ccc2F)n(C)n1 [Form I, 2,5-Dimethyl-2H-pyrazole-3-carboxylic acid {2-fluoro-5-[3-((E)-2-pyridin-2-yl-vinyl)-1H-indazol-6-ylamino]-phenyl}-amide]
light stability [1]: light-stable | solubility (Aqueous solubility; aqueous medium (pH 7.4), pH 7.4, aqueous buffer, pH 7.4): ~0.4 µg/mL (≈ 0.856 µM) | solubility (Aqueous solubility; [4]): ~39 µg/mL (≈ 83.4 µM) | time chemically stable ([2]; 80° C. and 40° C./75% RH): at least 14 days

Cc1cc(C(=O)Nc2cc(Nc3ccc4c(/C=C/c5ccccn5)n[nH]c4c3)ccc2F)n(C)n1 [Form II, 2,5-Dimethyl-2H-pyrazole-3-carboxylic acid {2-fluoro-5-[3-((E)-2-pyridin-2-yl-vinyl)-1H-indazol-6-ylamino]-phenyl}-amide]
light stability [1]: light-stable | solubility (Aqueous solubility; aqueous medium at pH 2, pH 2, aqueous buffer, pH 2): ~19 µg/mL (≈ 40.6 µM) | solubility (Aqueous solubility; aqueous medium at pH 7.4, pH 7.4, aqueous buffer, pH 7.4): ~0.7 µg/mL (≈ 1.5 µM)

Cc1cc(C(=O)Nc2cc(Nc3ccc4c(/C=C/c5ccccn5)n[nH]c4c3)ccc2F)n(C)n1 [Form III, 2,5-Dimethyl-2H-pyrazole-3-carboxylic acid {2-fluoro-5-[3-((E)-2-pyridin-2-yl-vinyl)-1H-indazol-6-ylamino]-phenyl}-amide]
light stability [1]: light-stable | aqueous solubility (Aqueous solubility; pH 2): about 10 μg/mL | aqueous solubility (Aqueous solubility; pH 7.4): about 0.6 μg/mL

Cc1cc(C(=O)Nc2cc(Nc3ccc4c(/C=C/c5ccccn5)n[nH]c4c3)ccc2F)n(C)n1 [Form IV, 2,5-Dimethyl-2H-pyrazole-3-carboxylic acid {2-fluoro-5-[3-((E)-2-pyridin-2-yl-vinyl)-1H-indazol-6-ylamino]-phenyl}-amide]
light stability [1]: light-stable | solubility (Aqueous solubility; [4]): ~7 µg/mL (≈ 15 µM)

Cc1cc(C(=O)Nc2cc(Nc3ccc4c(/C=C/c5ccccn5)n[nH]c4c3)ccc2F)n(C)n1 [Form Ia, 2,5-Dimethyl-2H-pyrazole-3-carboxylic acid {2-fluoro-5-[3-((E)-2-pyridin-2-yl-vinyl)-1H-indazol-6-ylamino]-phenyl}-amide]
light stability [1]: light-stable

Cc1cc(C(=O)Nc2cc(Nc3ccc4c(/C=C/c5ccccn5)n[nH]c4c3)ccc2F)n(C)n1 [Form Ib, 2,5-Dimethyl-2H-pyrazole-3-carboxylic acid {2-fluoro-5-[3-((E)-2-pyridin-2-yl-vinyl)-1H-indazol-6-ylamino]-phenyl}-amide]
physical and chemical stability ([2]; 60° C. and 40° C./75% RH): physically and chemically stable for at least three months

Cc1cc(C(=O)Nc2cc(Nc3ccc4c(/C=C/c5ccccn5)n[nH]c4c3)ccc2F)n(C)n1 [Form Ibm-2, 2,5-Dimethyl-2H-pyrazole-3-carboxylic acid {2-fluoro-5-[3-((E)-2-pyridin-2-yl-vinyl)-1H-indazol-6-ylamino]-phenyl}-amide]
conversion of solid form [3]: will convert to Form Ib upon complete hydration

Cc1cc(C(=O)Nc2cc(Nc3ccc4c(/C=C/c5ccccn5)n[nH]c4c3)ccc2F)n(C)n1 [Form V, 2,5-Dimethyl-2H-pyrazole-3-carboxylic acid {2-fluoro-5-[3-((E)-2-pyridin-2-yl-vinyl)-1H-indazol-6-ylamino]-phenyl}-amide]
light stability [1]: light-stable | solubility (Aqueous solubility; aqueous medium, pH 2, aqueous buffer, pH 2): ~8 µg/mL (≈ 17.1 µM) | aqueous solubility (Aqueous solubility; pH 7.4): about 0.2 μg/mL

Cc1cc(C(=O)Nc2cc(Nc3ccc4c(/C=C/c5ccccn5)n[nH]c4c3)ccc2F)n(C)n1 [Form VI, 2,5-Dimethyl-2H-pyrazole-3-carboxylic acid {2-fluoro-5-[3-((E)-2-pyridin-2-yl-vinyl)-1H-indazol-6-ylamino]-phenyl}-amide]
hygroscopicity [3]: very hygroscopic | conversion of solid form [3]: readily converted back to Form Ib
